The results in this text go back to US20260325533A1, “CDK INHIBITOR COMPOUNDS” (ALEKSIA THERAPEUTICS, INC., priority 2023, published 2026).

pIC50: −log10 of the molar value. Where two headings read alike, the source gives them in different places.

What all share (format): biochemical
One assay addresses CDK2/CCNE1 (Homo sapiens, UniProt P24941). Nature of the assay: CDK2 homogeneous time-resolved fluorescence (HTRF) kinase assay. The note with it: CDK2/CCNE. In a few lines:
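IC50 derived from 11-point, half-log dilutions (usually top 10 μM) of compound, 1% DMSO. Kinase (3 nM CDK2/CCNE1) was preincubated with compound 20 min, then phosphorylated 50 nM ULight-4E-BP1 peptide at 1 mM ATP for 60 min, 23 °C. Europium-antibody TR-FRET read after EDTA stop.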

The target in the next assay is CDK1/CCNB1 (Homo sapiens, UniProt P06493). Put plainly: CDK1 homogeneous time-resolved fluorescence (HTRF) kinase assay. The note with it: CDK1/CCNB. In a few lines:
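0.5 nM CDK1/CCNB1 was preincubated 20 min at 23 °C with compound in HEPES pH-unspecified buffer (MgCl2, EGTA, DTT, Tween 20), then reacted 60 min with 1 mM ATP and 50 nM ULight-4E-BP1 (Thr37/46) peptide. EDTA-stopped reactions were detected with 2 nM Eu-anti-phospho antibody; IC50 from 11-point half-log titrations.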

Another assay concerns the target CDK4/CCND3 (Homo sapiens, UniProt P11802). Nature of the assay: CDK4 homogeneous time-resolved fluorescence (HTRF) kinase assay. The note with it: CDK4/CCND. In a few lines:
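IC50s derive from Lance 665 nm or 665/615 nm signals in 11-point, half-log dose series (top 10 μM, 1% DMSO). The enzyme, 1.5 nM CDK4/CCND3, phosphorylates 50 nM ULight-4E-BP1 peptide with 1 mM ATP over 60 min at 23 °C.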
(TR-FRET usually uses a lanthanide donor and a delayed reading to cut background.)

The target in a further assay is CDK6/CCND1 (Homo sapiens, UniProt Q00534). Put plainly: CDK6 homogeneous time-resolved fluorescence (HTRF) kinase assay. The note with it: CDK6/CCND, 1 mM ATP. In a few lines:
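Assay conditions: HEPES buffer containing 10 mM MgCl2, 1 mM EGTA, 2 mM DTT, 0.01% Tween 20; 1 nM CDK6/CCND1, 50 nM peptide substrate, 1 mM ATP. Detection after 60 min reaction used 2 nM europium antibody with 340 nm excitation. Potency fitted from half-log series, 11 points.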

Where [1] appears, read: <25 nM, read-out: CDK2/CCNE IC50, <25 nM.
Setting [2] is: >250 nM, read-out: CDK1/CCNB IC50 >250 nM.
[3] abbreviates: 25-250 nM, read-out: CDK4/CCND IC50, 25-250 nM.
[4] abbreviates: 25-250 nM, read-out: CDK6/CCND IC50, 25-250 nM.
The mark [5] stands for this setting: 25-250 nM, read-out: CDK2/CCNE IC50, 25-250 nM.
Setting [6] is: >250 nM, read-out: CDK4/CCND IC50, >250 nM.
Where [7] appears, read: >250 nM, read-out: CDK6/CCND IC50, >250 nM.
Setting [8] is: 25-250 nM, read-out: CDK1/CCNB IC50, 25-250 nM.

Chain of CDK1/CCNB1 (P06493 whole entry): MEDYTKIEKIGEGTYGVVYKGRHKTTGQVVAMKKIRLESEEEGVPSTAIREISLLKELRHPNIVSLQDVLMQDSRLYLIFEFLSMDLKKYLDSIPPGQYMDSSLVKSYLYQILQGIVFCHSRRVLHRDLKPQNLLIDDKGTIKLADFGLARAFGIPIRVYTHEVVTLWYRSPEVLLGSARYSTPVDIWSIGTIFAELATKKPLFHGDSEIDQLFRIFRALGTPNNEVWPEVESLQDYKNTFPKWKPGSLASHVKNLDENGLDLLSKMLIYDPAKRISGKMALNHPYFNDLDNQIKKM
Chain of CDK1/CCNB1 (P14635 whole entry partner): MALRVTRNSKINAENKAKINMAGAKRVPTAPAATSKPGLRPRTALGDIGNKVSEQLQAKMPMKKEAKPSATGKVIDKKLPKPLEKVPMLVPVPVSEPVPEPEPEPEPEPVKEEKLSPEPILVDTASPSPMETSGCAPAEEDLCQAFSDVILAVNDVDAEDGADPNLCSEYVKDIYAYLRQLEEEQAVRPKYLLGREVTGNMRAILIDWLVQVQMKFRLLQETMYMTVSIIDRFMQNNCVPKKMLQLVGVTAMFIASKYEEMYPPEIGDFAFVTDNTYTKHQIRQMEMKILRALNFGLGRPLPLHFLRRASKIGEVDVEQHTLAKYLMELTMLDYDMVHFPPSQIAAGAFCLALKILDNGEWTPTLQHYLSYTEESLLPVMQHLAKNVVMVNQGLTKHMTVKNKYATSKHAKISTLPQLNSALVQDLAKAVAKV
Chain of CDK6/CCND1 (Q00534 whole entry): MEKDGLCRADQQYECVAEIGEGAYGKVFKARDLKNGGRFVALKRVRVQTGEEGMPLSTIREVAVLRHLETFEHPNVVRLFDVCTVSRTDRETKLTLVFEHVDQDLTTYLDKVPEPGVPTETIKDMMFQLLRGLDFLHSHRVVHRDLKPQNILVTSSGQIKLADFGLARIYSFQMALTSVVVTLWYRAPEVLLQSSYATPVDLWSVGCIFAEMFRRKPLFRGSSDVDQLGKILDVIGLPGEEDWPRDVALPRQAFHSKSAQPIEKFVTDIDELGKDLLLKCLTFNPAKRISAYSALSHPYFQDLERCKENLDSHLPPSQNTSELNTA
Chain of CDK6/CCND1 (P24385 whole entry partner): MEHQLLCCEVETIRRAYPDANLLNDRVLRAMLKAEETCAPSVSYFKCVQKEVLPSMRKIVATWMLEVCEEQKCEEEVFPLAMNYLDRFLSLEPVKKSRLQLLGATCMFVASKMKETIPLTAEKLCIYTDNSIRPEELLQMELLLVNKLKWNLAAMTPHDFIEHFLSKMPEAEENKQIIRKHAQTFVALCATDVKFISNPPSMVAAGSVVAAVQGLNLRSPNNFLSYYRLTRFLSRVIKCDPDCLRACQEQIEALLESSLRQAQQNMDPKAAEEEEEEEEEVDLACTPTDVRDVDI
Chain of CDK4/CCND3 (P11802 whole entry): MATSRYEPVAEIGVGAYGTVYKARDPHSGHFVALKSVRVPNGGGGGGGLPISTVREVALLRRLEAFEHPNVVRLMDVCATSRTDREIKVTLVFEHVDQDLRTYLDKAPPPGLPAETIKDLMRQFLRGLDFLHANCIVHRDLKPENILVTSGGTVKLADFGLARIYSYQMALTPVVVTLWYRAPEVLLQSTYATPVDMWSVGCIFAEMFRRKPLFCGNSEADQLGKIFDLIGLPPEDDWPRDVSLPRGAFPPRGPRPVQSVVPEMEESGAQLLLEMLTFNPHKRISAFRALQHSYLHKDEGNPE
Chain of CDK4/CCND3 (P30281 whole entry partner): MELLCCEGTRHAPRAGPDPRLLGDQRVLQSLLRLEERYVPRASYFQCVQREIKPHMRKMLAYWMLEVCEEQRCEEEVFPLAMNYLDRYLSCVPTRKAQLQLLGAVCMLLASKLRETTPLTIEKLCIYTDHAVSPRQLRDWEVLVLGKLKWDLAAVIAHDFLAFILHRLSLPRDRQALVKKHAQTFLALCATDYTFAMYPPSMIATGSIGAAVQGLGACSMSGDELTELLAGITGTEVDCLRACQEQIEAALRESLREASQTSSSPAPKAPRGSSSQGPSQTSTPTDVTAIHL

For `Cc1c(-c2nccc3cnc(Nc4ccc([S@@](C)(=N)=O)cc4)cc23)ccc2c1cnn2CC(O)(C(F)(F)F)C(F)(F)F` [Example 724, (S)-1,1,1,3,3,3-hexafluoro-2-((4-methyl-5-(7-((4-(S-methylsulfonimidoyl)phenyl)amino)-2,6-naphthyridin-1-yl)-1H-indazol-1-yl)methyl)propan-2-ol], the pIC50 is above 7.60 at CDK2/CCNE1 (setting [1]), below 6.60 at CDK1/CCNB1 (setting [2]), 6.60 to 7.60 at CDK4/CCND3 (setting [3]) and 6.60 to 7.60 at CDK6/CCND1 (setting [4]).

Consider `Cc1c(-c2nccc3cnc(Nc4ccc([S@](C)(=N)=O)cc4)cc23)ccc2c1cnn2CC(O)(C(F)(F)F)C(F)(F)F` [Example 725, (R)-1,1,1,3,3,3-hexafluoro-2-((4-methyl-5-(7-((4-(S-methylsulfonimidoyl)phenyl)amino)-2,6-naphthyridin-1-yl)-1H-indazol-1-yl)methyl)propan-2-ol], for which the pIC50 on CDK2/CCNE1 (setting [1]) was above 7.60; on CDK1/CCNB1 (setting [2]), below 6.60; at CDK4/CCND3 (setting [3]), 6.60 to 7.60; on CDK6/CCND1 (setting [4]) it was 6.60 to 7.60.

Take `Cc1c(-c2nccc3cnc(Nc4ccc(S(=O)(=O)N(C)c5ncccn5)cc4)cc23)ccc2c1cnn2CC(O)(C(F)(F)F)C(F)(F)F` [Example 732, N-methyl-4-((5-(4-methyl-1-(3,3,3-trifluoro-2-hydroxy-2-(trifluoromethyl)propyl)-1H-indazol-5-yl)-2,6-naphthyridin-3-yl)amino)-N-(pyrimidin-2-yl)benzenesulfonamide]: the pIC50 on CDK2/CCNE1 (setting [5]) is 6.60 to 7.60; on CDK1/CCNB1 (setting [2]) it was below 6.60; on CDK4/CCND3 (setting [6]), below 6.60; on CDK6/CCND1 (setting [7]) it was below 6.60.

Take `CCN(c1ncccn1)S(=O)(=O)c1ccc(Nc2cc3c(-c4ccc5c(cnn5CC(C)(C)O)c4C)nccc3cn2)cc1` [Example 733, N-ethyl-4-((5-(1-(2-hydroxy-2-methylpropyl)-4-methyl-1H-indazol-5-yl)-2,6-naphthyridin-3-yl)amino)-N-(pyrimidin-2-yl)benzenesulfonamide]: the pIC50 on CDK2/CCNE1 (setting [1]) was above 7.60; on CDK1/CCNB1 (setting [2]), below 6.60; on CDK4/CCND3 (setting [6]), below 6.60; at CDK6/CCND1 (setting [4]), 6.60 to 7.60.

As to `Cc1c(-c2nccc3cnc(Nc4ccc(NS(=O)(=O)c5cccc(N6CCNCC6)c5)cc4)cc23)ccc2c1cnn2CC(C)(C)O` [Example 752, N-(4-((5-(1-(2-hydroxy-2-methylpropyl)-4-methyl-1H-indazol-5-yl)-2,6-naphthyridin-3-yl)amino)phenyl)-3-(piperazin-1-yl)benzenesulfonamide], the pIC50 on CDK2/CCNE1 (setting [1]) is above 7.60; at CDK1/CCNB1 (setting [2]), below 6.60; on CDK4/CCND3 (setting [6]) it was below 6.60; at CDK6/CCND1 (setting [7]), below 6.60.

For `Cc1c(-c2nccc3cnc(Nc4ccc(S(=O)(=O)Nc5ccc(N(C)C)nn5)cc4)cc23)ccc2c1cnn2CC(C)(C)O` [Example 765, N-(6-(dimethylamino)pyridazin-3-yl)-4-((5-(1-(2-hydroxy-2-methylpropyl)-4-methyl-1H-indazol-5-yl)-2,6-naphthyridin-3-yl)amino)benzenesulfonamide], the pIC50 at CDK2/CCNE1 (setting [1]) was above 7.60; on CDK1/CCNB1 (setting [8]), 6.60 to 7.60; at CDK4/CCND3 (setting [3]) it was 6.60 to 7.60; on CDK6/CCND1 (setting [4]), 6.60 to 7.60.

As to `Cc1c(-c2nccc3cnc(Nc4ccc(NS(=O)(=O)c5cc6ccccc6o5)cc4)cc23)ccc2c1cnn2CC(C)(C)O` [Example 776, N-(4-((5-(1-(2-hydroxy-2-methylpropyl)-4-methyl-1H-indazol-5-yl)-2,6-naphthyridin-3-yl)amino)phenyl)benzofuran-2-sulfonamide], the pIC50 is 6.60 to 7.60 at CDK2/CCNE1 (setting [5]), below 6.60 on CDK1/CCNB1 (setting [2]), below 6.60 at CDK4/CCND3 (setting [6]) and below 6.60 at CDK6/CCND1 (setting [7]).

With `Cc1c(-c2nccc3cnc(Nc4ccc(S(C)(=O)=O)cc4O)cc23)ccc2c1cnn2CC(C)(C)O` [Example 784, 2-((5-(1-(2-hydroxy-2-methylpropyl)-4-methyl-1H-indazol-5-yl)-2,6-naphthyridin-3-yl)amino)-5-(methylsulfonyl)phenol], the pIC50 on CDK2/CCNE1 (setting [1]) is above 7.60; on CDK1/CCNB1 (setting [2]) it was below 6.60; at CDK4/CCND3 (setting [6]), below 6.60; on CDK6/CCND1 (setting [4]), 6.60 to 7.60.

With `Cc1c(-c2ncc(F)c3cnc(Nc4ccc(S(C)(=O)=O)cc4)cc23)ccc2c1cnn2CC(C)(C)O` [Example 788, 1-(5-(4-fluoro-7-((4-(methylsulfonyl)phenyl)amino)-2,6-naphthyridin-1-yl)-4-methyl-1H-indazol-1-yl)-2-methylpropan-2-ol], the pIC50 on CDK2/CCNE1 (setting [5]) was 6.60 to 7.60; at CDK1/CCNB1 (setting [2]) it was below 6.60; at CDK4/CCND3 (setting [6]) it was below 6.60; on CDK6/CCND1 (setting [7]) it was below 6.60.

As for `Cc1c(-c2nccc3cnc(Nc4ccc(S(=O)(=O)Nc5nc(C(F)(F)F)cc(C(F)(F)F)n5)cc4)cc23)ccc2c1cnn2CC(C)(C)O` [Example 789, N-(4,6-bis(trifluoromethyl)pyrimidin-2-yl)-4-((5-(1-(2-hydroxy-2-methylpropyl)-4-methyl-1H-indazol-5-yl)-2,6-naphthyridin-3yl)amino)benzenesulfonamide], the pIC50 is 6.60 to 7.60 on CDK2/CCNE1 (setting [5]), below 6.60 on CDK1/CCNB1 (setting [2]), below 6.60 on CDK4/CCND3 (setting [6]) and below 6.60 on CDK6/CCND1 (setting [7]).

On to `COc1ccc(C(=O)N2CC[C@@H](Nc3cc4c(-c5ccc6c(cnn6CC(C)(C)O)c5C)nccc4cn3)C2)cc1` [Example 790, (R)-(3-((5-(1-(2-hydroxy-2-methylpropyl)-4-methyl-1H-indazol-5-yl)-2,6-naphthyridin-3-yl)amino)pyrrolidin-1-yl)(4-methoxyphenyl)methanone], for which the pIC50 at CDK2/CCNE1 (setting [1]) was above 7.60; on CDK1/CCNB1 (setting [2]), below 6.60; at CDK4/CCND3 (setting [6]), below 6.60; at CDK6/CCND1 (setting [7]), below 6.60.

For the compound `CS(=O)(=O)c1ccc(Nc2cc3c(C#Cc4cnc(F)c(F)c4)nccc3cn2)cc1` [Example 852, 5-((5,6-difluoropyridin-3-yl)ethynyl)-N-(4-(methylsulfonyl)phenyl)-2,6-naphthyridin-3-amine], the pIC50 at CDK2/CCNE1 (setting [5]) was 6.60 to 7.60; at CDK1/CCNB1 (setting [2]), below 6.60; at CDK4/CCND3 (setting [6]), below 6.60; at CDK6/CCND1 (setting [7]) it was below 6.60.

On to `N#Cc1ccc(C#Cc2nccc3cnc(Nc4ccc5c(c4)OCCS5(=O)=O)cc23)cc1` [Example 862, 4-((7-((4,4-dioxido-2,3-dihydrobenzo[b][1,4]oxathiin-7-yl)amino)-2,6-naphthyridin-1-yl)ethynyl)benzonitrile], for which the pIC50 is 6.60 to 7.60 on CDK2/CCNE1 (setting [5]), below 6.60 on CDK1/CCNB1 (setting [2]), below 6.60 on CDK4/CCND3 (setting [6]) and below 6.60 on CDK6/CCND1 (setting [7]).

In the case of `CN1CCN(c2ccc(C#Cc3nccc4cnc(Nc5ccc(S(=O)(=O)O)cc5)cc34)cc2)CC1` [Example 863, 4-((5-((4-(4-methylpiperazin-1-yl)phenyl)ethynyl)-2,6-naphthyridin-3-yl)amino)benzenesulfonic acid], the pIC50 is 6.60 to 7.60 at CDK2/CCNE1 (setting [5]), below 6.60 on CDK1/CCNB1 (setting [2]), below 6.60 at CDK4/CCND3 (setting [6]) and below 6.60 at CDK6/CCND1 (setting [7]).

Turning to `CC#Cc1nccc2cnc(Nc3ccc(S(=O)(=O)Nc4nccc(N5CCN(C)CC5)n4)cc3)cc12` [Example 877, N-(4-(4-methylpiperazin-1-yl)pyrimidin-2-yl)-4-((5-(prop-1-yn-1-yl)-2,6-naphthyridin-3-yl)amino)benzenesulfonamide], the pIC50 was 6.60 to 7.60 on CDK2/CCNE1 (setting [5]), below 6.60 on CDK1/CCNB1 (setting [2]), below 6.60 on CDK4/CCND3 (setting [6]) and below 6.60 on CDK6/CCND1 (setting [7]).

Regarding `Cc1c(-c2nccc3cnc(Nc4cnc(O)c(N5CCN(CCO)CC5)c4)cc23)ccc2c1cnn2CC(C)(C)O` [Example 887, 5-((5-(1-(2-hydroxy-2-methylpropyl)-4-methyl-1H-indazol-5-yl)-2,6-naphthyridin-3-yl)amino)-3-(4-(2-hydroxyethyl)piperazin-1-yl)pyridin-2-ol], the pIC50 at CDK2/CCNE1 (setting [1]) is above 7.60; on CDK1/CCNB1 (setting [2]), below 6.60; at CDK4/CCND3 (setting [6]) it was below 6.60; on CDK6/CCND1 (setting [7]), below 6.60.

As for `CC(=O)NC1CCN(c2ccc(Nc3cc4c(-c5ccc6c(cnn6CC(C)(C)O)c5C)nccc4cn3)cc2S(C)(=O)=O)C1` (centres unmarked) [Example 930, N-(1-(4-((5-(1-(2-hydroxy-2-methylpropyl)-4-methyl-1H-indazol-5-yl)-2,6-naphthyridin-3-yl)amino)-2-(methylsulfonyl)phenyl)pyrrolidin-3-yl)acetamide], the pIC50 on CDK2/CCNE1 (setting [1]) was above 7.60; at CDK1/CCNB1 (setting [8]), 6.60 to 7.60; on CDK4/CCND3 (setting [3]) it was 6.60 to 7.60; at CDK6/CCND1 (setting [4]), 6.60 to 7.60.
